Source: US20050130252A1, “Stabilized susceptibility tests of aerobic pathogens” (Wyeth Holdings Corporation, priority 2003, published 2005)
≈ marks a conversion by molar mass, not a printed value. Where two headings read alike, the source gives them in different places.

Test system: E. faecalis ATCC 29212
Test: Broth microdilution MIC
Type: cell-based, Enterococcus faecalis
Conditions: Enterococcus faecalis
Method: The process for preparing susceptibility test medium are the following steps: • a. Preparing Mueller Hinton Broth II medium by adding 22 grams powdered media to 1.0 liter distilled water; • b. Autoclaving (121° C., 15 psi, 15 minutes) and cooling the medium; • c. Adding Oxyrase® up to about 10% final volume and keeping at 35-37° C. in an incubator for 30 minutes; • d. Adding about 50 μL to each well of a 96 well microtiter plate; • e. Weighing drug and adding broth to drug to bring up to about (standard 128 μg/ml); • f. Adding 50 μL of the drug to the first column of the titer plate; • g. Diluting by two-fold serial diluting across or down the plate. • h. Preparing a Prompt™ inoculum at 10^8 CFU/ml; • i. Diluting inoculum 1:100 in the broth at […] in 9.9 ml (1:100) is 10^6 colony forming units (CFU) forming the adjusted inoculum; • j. Adding 50 μL of the adjusted inoculum to the wells of the microtiter plate; • k. Incubating the plates at 35-37° C. for 18-22 hours; and • l. Reading, with the unaided eye, the MIC.
The in vitro activities of tigecycline and control antibiotics were determined by the broth microdilution method as recommended by the NCCLS. (National Committee for Clinical Laboratory Standards, 2003. Methods for Dilution Antimicrobial Susceptibility Tests for Bacteria That Grow Aerobically; Approved Standards: M7-A6, Sixth ed, vol. 23., National Committee for Clinical Laboratory Standards Wayne, Pa.) was used for the standard procedures. MBH with 5% lysed horse blood was used for testing S. pneumoniae and Haemophilus Test Medium was used for testing H. influenzae. Oxyrase® (Oxyrase Inc, Mansfield, Ohio) was used according to the manufacturer's instructions by adding 1 ml of Oxyrase® to 50 ml of media. Media age studies were performed by preparing MHB in multiple flasks, then storing the media under various conditions. MICs were usually performed in duplicate on each day of testing. Storage under anaerobic conditions was conducted in an anaerobic chamber (MACS MG 1000, Don Whitley Scientific LTD). The pH of the media was determined by pH meter (Corning 430). A comparison of the in vitro activity of tigecycline by agar and broth dilution methodolgies with and without Oxyrase® against clinical isolates is shown in Table 1.

SMILES: CN(C)c1cc(NC(=O)CNC(C)(C)C)c(O)c2c1C[C@H]1C[C@H]3[C@H](N(C)C)C(O)=C(C(N)=O)C(=O)[C@@]3(O)C(O)=C1C2=O [Tigecycline, tigecycline]
- MIC (ATCC29212, 0 h, E. faecalis ATCC 29212, Day 0, Pre-prepared media, room temperature, N = 6): 0.25 µg/mL (≈ 0.427 µM)
- MIC (ATCC29212, 0 h, E. faecalis ATCC 29212, Day 0, media Fresh from Powder 2° C., N = 6): 0.03 µg/mL (≈ 0.0512 µM)
- MIC (ATCC29212, 0 h, E. faecalis ATCC 29212, Day 0, media Fresh from Powder, room temperature, N = 6): 0.03 µg/mL (≈ 0.0512 µM)
- MIC (ATCC29212, 24 h, E. faecalis ATCC 29212, Day 1, Pre-prepared media, room temperature, N = 6): 0.25 µg/mL (≈ 0.427 µM)
- MIC (ATCC29212, 24 h, E. faecalis ATCC 29212, Day 1, media Fresh from Powder 2° C., N = 6): 0.03 µg/mL (≈ 0.0512 µM)
- MIC (ATCC29212, 24 h, E. faecalis ATCC 29212, Day 1, media Fresh from Powder, room temperature, N = 6): 0.03 to 0.06 µg/mL (≈ 0.0512 to 0.102 µM)
- MIC (ATCC29212, 168 h, E. faecalis ATCC 29212, Day 7, Pre-prepared media, room temperature, N = 6): 0.25 µg/mL (≈ 0.427 µM)
- MIC (ATCC29212, 168 h, E. faecalis ATCC 29212, Day 7, media Fresh from Powder 2° C., N = 6): 0.06 µg/mL (≈ 0.102 µM)
- MIC (ATCC29212, 168 h, E. faecalis ATCC 29212, Day 7, media Fresh from Powder, room temperature, N = 6): 0.12 to 0.25 µg/mL (≈ 0.205 to 0.427 µM)
- MIC (ATCC29212, 336 h, E. faecalis ATCC 29212, Day 14, Pre-prepared media, room temperature, N = 6): 0.25 to 0.5 µg/mL (≈ 0.427 to 0.854 µM)
- MIC (ATCC29212, 336 h, E. faecalis ATCC 29212, Day 14, media Fresh from Powder 2° C., N = 6): 0.25 µg/mL (≈ 0.427 µM)
- MIC (ATCC29212, 336 h, E. faecalis ATCC 29212, Day 14, media Fresh from Powder, room temperature, N = 6): 0.25 µg/mL (≈ 0.427 µM)
- MIC (ATCC29212, 336 h, read-out: Minimal Inhibitory Concentration, E. faecalis ATCC29212, media Aged Aerobic (2 weeks at RT under room air), N = 4): 0.25 µg/mL (≈ 0.427 µM)
- MIC (ATCC29212, 504 h, E. faecalis ATCC 29212, Day 21, Pre-prepared media, room temperature, N = 6): 0.25 to 0.5 µg/mL (≈ 0.427 to 0.854 µM)
- MIC (ATCC29212, 504 h, E. faecalis ATCC 29212, Day 21, media Fresh from Powder 2° C., N = 6): 0.25 µg/mL (≈ 0.427 µM)
- MIC (ATCC29212, 504 h, E. faecalis ATCC 29212, Day 21, media Fresh from Powder, room temperature, N = 6): 0.25 µg/mL (≈ 0.427 µM)
- MIC (ATCC29212, 672 h, E. faecalis ATCC 29212, Day 28, Pre-prepared media, room temperature, N = 6): 0.25 to 0.5 µg/mL (≈ 0.427 to 0.854 µM)
- MIC (ATCC29212, 672 h, E. faecalis ATCC 29212, Day 28, media Fresh from Powder 2° C., N = 6): 0.12 to 0.25 µg/mL (≈ 0.205 to 0.427 µM)
- MIC (ATCC29212, 672 h, E. faecalis ATCC 29212, Day 28, media Fresh from Powder, room temperature, N = 6): 0.12 to 0.25 µg/mL (≈ 0.205 to 0.427 µM)
- MIC (ATCC29212, read-out: Minimal Inhibitory Concentration (modal value), E. faecalis ATCC29212, Aged Media + Oxyrase, N = 8): 0.12 µg/mL
- MIC (ATCC29212, read-out: Minimal Inhibitory Concentration (modal value), E. faecalis ATCC29212, Aged media, N = 8): 0.5 µg/mL (≈ 0.854 µM)
- MIC (ATCC29212, read-out: Minimal Inhibitory Concentration (modal value), E. faecalis ATCC29212, Fresh Media + Oxyrase, N = 8): 0.06 µg/mL
- MIC (ATCC29212, read-out: Minimal Inhibitory Concentration (modal value), E. faecalis ATCC29212, Freshly Prepared Media, N = 8): 0.06 to 0.12 µg/mL (≈ 0.102 to 0.205 µM)
- MIC (ATCC29212, read-out: Minimal Inhibitory Concentration, E. faecalis ATCC 29212, 2% Oxyrase): 0.03 µg/mL (≈ 0.0512 µM)
- MIC (ATCC29212, read-out: Minimal Inhibitory Concentration, E. faecalis ATCC29212, Aged Media + Oxyrase, N = 8): 0.12 µg/mL
- MIC (ATCC29212, read-out: Minimal Inhibitory Concentration, E. faecalis ATCC29212, Aged media, N = 8): 0.25 to 0.5 µg/mL (≈ 0.427 to 0.854 µM)
- MIC (ATCC29212, read-out: Minimal Inhibitory Concentration, E. faecalis ATCC29212, Commercially Prepared media, N = 4): 0.12 to 0.25 µg/mL (≈ 0.205 to 0.427 µM)
- MIC (ATCC29212, read-out: Minimal Inhibitory Concentration, E. faecalis ATCC29212, Fresh Media + Oxyrase, N = 8): 0.06 µg/mL
- MIC (ATCC29212, read-out: Minimal Inhibitory Concentration, E. faecalis ATCC29212, Freshly Prepared Media, N = 8): 0.06 to 0.12 µg/mL (≈ 0.102 to 0.205 µM)
- MIC (ATCC29212, read-out: Minimal Inhibitory Concentration, E. faecalis ATCC29212, Freshly Prepared media, N = 4): 0.03 µg/mL (≈ 0.0512 µM)
- MIC (ATCC29212, read-out: Minimal Inhibitory Concentration, E. faecalis ATCC 29212, MHB II + 0.05% Catalase): 0.5 µg/mL
- MIC (ATCC29212, read-out: Minimal Inhibitory Concentration, E. faecalis ATCC 29212, MHB II + 0.05% L-ascorbic Acid): 1 µg/mL
- MIC (ATCC29212, read-out: Minimal Inhibitory Concentration, E. faecalis ATCC 29212, MHB II + 0.05% L-cysteine): 0.12 µg/mL
- MIC (ATCC29212, read-out: Minimal Inhibitory Concentration, E. faecalis ATCC 29212, MHB II + 0.05% Sodium Pyruvate): 0.25 µg/mL
